Data published in patent US8435978B2, “Substituted sulfonamide compounds” (Gruenenthal GmbH, priority 2006, dated 2013).

Key:
human B1R receptor = target: T1, human B1R receptor (Homo sapiens, UniProt P46663); test: Functional study on the bradykinin receptor 1 (B1R), FLIPR Ca2+ assay, hB1R cells; format: cell-based; settings: agonist Lys-Des-Arg9-bradykinin 0.5 nM, % inhibition compared with the maximum achievable inhibition; for inhibition at 10 µM: CHO-K1, test substance 10 μM, read-out: B1R Antagonism, human [10 μM] % Inhibition; for B1R Antagonism, human [10 μM] % Inhibition: test substance 10 μM, hB1R CHO K1 cells
T1 construct: host or cells: CHO K1 cells (Chinese hamster ovary), stably transfected
T1 sequence (P46663 1-353): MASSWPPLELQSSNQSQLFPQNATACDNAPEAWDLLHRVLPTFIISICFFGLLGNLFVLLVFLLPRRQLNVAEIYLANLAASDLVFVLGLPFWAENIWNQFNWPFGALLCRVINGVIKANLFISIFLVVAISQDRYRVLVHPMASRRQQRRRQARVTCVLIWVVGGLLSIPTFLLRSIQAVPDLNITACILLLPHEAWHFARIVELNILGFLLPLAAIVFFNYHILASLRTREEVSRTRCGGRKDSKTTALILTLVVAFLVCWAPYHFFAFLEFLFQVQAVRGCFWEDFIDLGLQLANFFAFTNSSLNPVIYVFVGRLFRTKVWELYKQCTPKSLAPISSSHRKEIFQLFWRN
Summary of the method: (§1)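 FLIPR Ca2+ assay in recombinant CHO K1 cells (human or rat B1R), Fluo-4 dye; 10 μM compound, 10 min, then EC-level agonist per species (0.5 nM Lys-Des-Arg9-BK human / 100 nM Des-Arg9-BK rat). Output: % inhibition vs maximum.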

B1R receptor of the rat = target: T2, B1R receptor of the rat (Rattus norvegicus, UniProt P97583); test: Functional study on the bradykinin receptor 1 (B1R), FLIPR Ca2+ assay, rB1R cells; format: cell-based; settings: agonist Des-Arg9-bradykinin 100 nM, % inhibition compared with the maximum achievable inhibition; for inhibition at 10 µM: CHO-K1, test substance 10 μM, read-out: B1R Antagonism, rat [10 μM] % Inhibition; for B1R Antagonism, rat [10 μM] % Inhibition: test substance 10 μM, rB1R CHO K1 cells
T2 construct: host or cells: CHO K1 cells (Chinese hamster ovary), stably transfected
T2 sequence (P97583 1-337): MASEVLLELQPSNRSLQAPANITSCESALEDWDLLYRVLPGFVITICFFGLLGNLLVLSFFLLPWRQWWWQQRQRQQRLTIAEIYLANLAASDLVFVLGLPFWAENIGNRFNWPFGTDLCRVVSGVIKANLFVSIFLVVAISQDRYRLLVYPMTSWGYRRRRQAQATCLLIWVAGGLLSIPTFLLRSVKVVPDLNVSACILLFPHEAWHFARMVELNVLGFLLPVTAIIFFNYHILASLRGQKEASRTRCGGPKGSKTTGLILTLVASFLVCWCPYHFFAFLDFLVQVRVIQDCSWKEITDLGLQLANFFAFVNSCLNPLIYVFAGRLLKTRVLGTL
Summary of the method: as §1

Row | inhibition at 10 µM (human B1R receptor) | inhibition at 10 µM (B1R receptor of the rat) | B1R Antagonism, human [10 μM] % Inhibition (human B1R receptor) | B1R Antagonism, rat [10 μM] % Inhibition (B1R receptor of the rat) | Compound
1 | 54.1% | 101% | – | – | O=C(COCC1CCCCN1S(=O)(=O)c1c(Cl)cccc1Cl)N1CCN(c2nc3ccccc3s2)CC1 (stereo not shown) [Example 553, 1-(4-(benzo[d]thiazol-2-yl)piperazin-1-yl)-2-((1-(2,6-dichlorophenylsulfonyl)piperidin-2-yl)methoxy)ethanone]
2 | 25.2% | 102% | – | – | O=C(COCC1CCCCN1S(=O)(=O)c1c(Cl)cccc1Cl)N1CCN(c2nc3ccc(Cl)cc3s2)CC1 (stereo not shown) [Example 554, 1-(4-(6-chlorobenzo[d]thiazol-2-yl)piperazin-1-yl)-2-((1-(2,6-dichlorophenylsulfonyl)piperidin-2-yl)methoxy)ethanone]
3 | 62.5% | 102% | – | – | CCN1CCN(c2ccc(NC(=O)COCC3CCCCN3S(=O)(=O)c3ccc(OC)cc3)cc2)CC1 (stereo not shown) [Example 555, N-(4-(4-ethylpiperazin-1-yl)phenyl)-2-((1-(4-methoxyphenylsulfonyl)piperidin-2-yl)methoxy)acetamide]
4 | 12.1% | 85.6% | – | – | COc1ccc(S(=O)(=O)N2CCCCC2COCC(=O)Nc2ccc(N3CCOCC3)c3nonc23)cc1 (stereo not shown) [Example 556, 2-((1-(4-methoxyphenylsulfonyl)piperidin-2-yl)methoxy)-N-(7-morpholinobenzo[c][1,2,5]oxadiazol-4-yl)acetamide]
5 | – | – | 29.73% | 87.56% | COc1ccc(S(=O)(=O)N2CCCCC2COCC(=O)Nc2ccc(NC(=O)CN3CCCCC3)c(C)c2)cc1 (stereo not shown) [Example 557, 2-((1-(4-methoxyphenylsulfonyl)piperidin-2-yl)methoxy)-N-(3-methyl-4-(2-(piperidin-1-yl)acetamideo)phenyl)acetamide]
6 | -3.53% | 103% | – | – | COc1ccc(S(=O)(=O)N2CCCCC2COCC(=O)N2CCN(CCOc3ccccc3)CC2)cc1 (stereo not shown) [Example 558, 2-((1-(4-methoxyphenylsulfonyl)piperidin-2-yl)methoxy)-1-(4-(2-phenoxyethyl)piperazin-1-yl)ethanone]
7 | 99.9% | 100% | – | – | COc1cc(C)c(S(=O)(=O)N2CCCCC2COCC(=O)N2CCN(CCn3c(C)ccc3C)CC2)c(C)c1 (stereo not shown) [Example 559, 1-(4-(2-(2,5-dimethyl-1H-pyrrol-1-yl)ethyl)piperazin-1-yl)-2-((1-(4-methoxy-2,6-dimethylphenylsulfonyl)piperidin-2-yl)methoxy)ethanone]
8 | 102% | 99.3% | – | – | COc1cc(C)c(S(=O)(=O)N2Cc3ccccc3CC2COCC(=O)N2CCN(CCCN(C)C)CC2)c(C)c1C (stereo not shown) [Example 560, 1-(4-(3-(dimethylamino)propyl)piperazin-1-yl)-2-((2-(4-methoxy-2,3,6-trimethylphenylsulfonyl)-1,2,3,4-tetrahydroisoquinolin-3-yl)methoxy)ethanone]
9 | 102% | 101% | – | – | COc1cc(C)c(S(=O)(=O)N2CCCCC2COCC(=O)N(CCCN(C)C)CCCN(C)C)c(C)c1 (stereo not shown) [Example 561, N,N-bis(3-(dimethylamino)propyl)-2-((1-(4-methoxy-2,6-dimethylphenylsulfonyl)piperidin-2-yl)methoxy)acetamide]
10 | 102% | 100% | – | – | COc1cc(C)c(S(=O)(=O)N2Cc3ccccc3CC2COCC(=O)N2CCN(C3CCN(C)CC3)CC2)c(C)c1C (stereo not shown) [Example 562, 2-((2-(4-methoxy-2,3,6-trimethylphenylsulfonyl)-1,2,3,4-tetrahydroisoquinolin-3-yl)methoxy)-1-(4-(1-methylpiperidin-4-yl)piperazin-1-yl)ethanone]
11 | 102% | 100% | – | – | COc1cc(C)c(S(=O)(=O)N2Cc3ccccc3CC2COCC(=O)N2CCN(CC3CCN(C)CC3)CC2)c(C)c1C (stereo not shown) [Example 563, 2-((2-(4-methoxy-2,3,6-trimethylphenylsulfonyl)-1,2,3,4-tetrahydroisoquinolin-3-yl)methoxy)-1-(4-((1-methylpiperidin-4-yl)methyl)piperazin-1-yl)ethanone]
12 | 105% | 102% | – | – | CN(C)CCCN1CCN(C(=O)COCC2CCCCN2S(=O)(=O)c2c(Cl)cccc2Cl)CC1 (stereo not shown) [Example 564, 2-((1-(2,6-dichlorophenylsulfonyl)piperidin-2-yl)methoxy)-1-(4-(3-(dimethylamino)propyl)piperazin-1-yl)ethanone]
13 | – | – | 104.82% | 102.52% | CN1CCC(N2CCN(C(=O)COCC3CCCCN3S(=O)(=O)c3c(Cl)cccc3Cl)CC2)CC1 (stereo not shown) [Example 565, 2-((1-(2,6-dichlorophenylsulfonyl)piperidin-2-yl)methoxy)-1-(4-(1-methylpiperidin-4-yl)piperazin-1-yl)ethanone]
14 | 103% | 103% | – | – | CN(C)CCCN1CCN(C(=O)COCC2CCCN2S(=O)(=O)c2c(Cl)cccc2Cl)CC1 (stereo not shown) [Example 566, 2-((1-(2,6-dichlorophenylsulfonyl)pyrrolidin-2-yl)methoxy)-1-(4-(3-(dimethylamino)propyl)piperazin-1-yl)ethanone]
15 | 104% | 102% | – | – | CN1CCC(N2CCN(C(=O)COCC3CCCN3S(=O)(=O)c3c(Cl)cccc3Cl)CC2)CC1 (stereo not shown) [Example 567, 2-((1-(2,6-dichlorophenylsulfonyl)pyrrolidin-2-yl)methoxy)-1-(4-(1-methylpiperidin-4-yl)piperazin-1-yl)ethanone]
16 | 38.5% | 81.3% | – | – | Cc1cc(S(=O)(=O)N2CCCCC2COCC(=O)N2CCN(Cc3ccccc3)CC2)c(C)cc1Cl (stereo not shown) [Example 568, 1-(4-benzylpiperazin-1-yl)-2-((1-(4-chloro-2,5-dimethylphenylsulfonyl)piperidin-2-yl)methoxy)ethanone]
17 | 90% | 92.9% | – | – | CN(C)CCCN1CCN(C(=O)COCC2CCCN2S(=O)(=O)c2c(Cl)cc(C(F)(F)F)cc2Cl)CC1 (stereo not shown) [Example 569, 2-((1-(2,6-dichloro-4-(trifluoromethyl)phenylsulfonyl)pyrrolidin-2-yl)methoxy)-1-(4-(3-(dimethylamino)propyl)piperazin-1-yl)ethanone]
18 | 97.7% | 98.1% | – | – | CN1CCC(N2CCN(C(=O)COCC3CCCN3S(=O)(=O)c3c(Cl)cc(C(F)(F)F)cc3Cl)CC2)CC1 (stereo not shown) [Example 570, 2-((1-(2,6-dichloro-4-(trifluoromethyl)phenylsulfonyl)pyrrolidin-2-yl)methoxy)-1-(4-(1-methylpiperidin-4-yl)piperazin-1-yl)ethanone]
19 | 104% | 100% | – | – | CN1CCC(N2CCN(C(=O)COCC3CCCCN3S(=O)(=O)c3ccccc3C(F)(F)F)CC2)CC1 (stereo not shown) [Example 571, 1-(4-(1-methylpiperidin-4-yl)piperazin-1-yl)-2-((1-(2-(trifluoromethyl)phenylsulfonyl)piperidin-2-yl)methoxy)ethanone]
20 | 23.4% | 96.8% | – | – | CN(C)c1ccc(CNC(=O)COCC2CCCN2S(=O)(=O)c2c(Cl)cc(Cl)cc2Cl)cc1 (stereo not shown) [Example 575, N-(4-(dimethylamino)benzyl)-2-((1-(2,4,6-trichlorophenylsulfonyl)pyrrolidin-2-yl)methoxy)acetamide]
21 | 1.85% | 107% | – | – | COc1cc(C)c(S(=O)(=O)N2CCCC2COCC(=O)NCc2ccc(N(C)C)cc2)c(C)c1 (stereo not shown) [Example 576, N-(4-(dimethylamino)benzyl)-2-((1-(4-methoxy-2,6-dimethylphenylsulfonyl)pyrrolidin-2-yl)methoxy)acetamide]
22 | 17.3% | 107% | – | – | COc1cc(C)c(S(=O)(=O)N2CCCCC2COCC(=O)NCc2ccc(N(C)C)cc2)c(C)c1 (stereo not shown) [Example 577, N-(4-(dimethylamino)benzyl)-2-((1-(4-methoxy-2,6-dimethylphenylsulfonyl)piperidin-2-yl)methoxy)acetamide]
23 | 8.96% | 87.1% | – | – | CN(C)c1ccc(CNC(=O)COCC2CCCCN2S(=O)(=O)c2c(Cl)cc(Cl)cc2Cl)cc1 (stereo not shown) [Example 578, N-(4-(dimethylamino)benzyl)-2-((1-(2,4,6-trichlorophenylsulfonyl)piperidin-2-yl)methoxy)acetamide]
